Measurements from patent publication US7560462B2, “Compounds useful for inhibiting CHK1” (ICOS Corporation, priority 2004, dated 2009).

Key:
[1] = test system: colon tumor cell line xenograft tumors; test: Animal tumor models (xenograft); format: in vivo, Balb/c (nu/nu) mice; details: 160 mg/kg i.p., xenograft mice
Source text: To test the ability of the Chk1 inhibitors of the invention to enhance the killing of tumors by DNA damaging agents in mice, xenograft tumor models using colon tumor cell lines are established. 5-fluorouracil (5-FU) or gemcitabine can be used as DNA damaging agents; HT29 and Colo205 (human colon carcinoma) and H460 and Calu-6 (nonsmall cell carcinoma) cells can be used to propagate xenograft tumors in 6-8 week old female […] Balb/c (nu/nu) mice. Mice are maintained in a laminar airflow cabinet under pathogen-free conditions and fed sterile food and water ad libitum. Cell lines are grown to subconfluence in RPMI 1640 media supplemented with 10% FBS, 100 U/mL penicillin, 100 μg/mL streptomycin, and 1.5 mM L-glutamine in a 5% CO2 humidified environment. Single cell suspensions are prepared in CMF-PBS, and cell concentration adjusted to 1×10^8 cells/mL. Mice are inoculated subcutaneously (s.c.) on the right flank or right leg with a total of 1×10^7 cells (100 μL). Mice are randomized (5-15 mice/group) into four treatment groups and used when tumors reach a volume of […] (usually 7-11 days post-inoculation). Tumors are measured with vernier calipers and tumor volumes are estimated using the empirically derived formula: tumor volume (cm^3)=tumor length (cm)×tumor width (cm)×tumor depth (cm)/3.3. […] Tumor size is monitored every other day for the duration of the experiment.

[2] = test system: Chk1 serine 296 phosphorylation in HT29 cells; test: Western blot of Chk1 phosphorylation at serine 296; format: cell-based, human
Experimental: Phosphorylation at this site is not inhibited by wortmannin, which inhibits Atm and Atr. Therefore, the phosphorylation of serine 296 is distinct from phosphorylation at serines 317 and 345. […] Therefore, this approach can be used to monitor Chk1 activity in tumors in response to Chk1 activators. Further, this approach can be used to measure inhibition of Chk1 activation by Chk1 inhibitors.
Thus, HT 29 cells are treated with 20 μM gemcitabine for two h. The gemcitabine is washed out of the cell growth media and cells are incubated for 22 additional h. Protein lysates are prepared and separated by an SDS-polyacrylamide gel electrophoresis. Proteins are transferred to polyvinylidene fluoride (PVDF) membranes and probed with antisera (Cell Signalling) specific for phosphorylated serine 296 (Cell Signalling). […] Further, HT29 cells treated with selective Chk1 inhibitors for 15 min show no serine 296 phosphorylation.

[3] = test system: Chk1 phosphorylation in HT29 cells; test: Western blot of Chk1 phosphorylation at serines 317 and 345; format: cell-based, human; details: 20 μM for two h, then 22 h washout
Source text: To determine whether an agent is a Chk1 activator, the phosphorylation state of Chk1 can be measured using phospho-specific antibodies to specific phosphorylation sites on Chk1. […] Liu et al., Genes Dev. 14:1448-59, 2000; Zhao et al., Mol. Cell. Biol. 21:4129-39, 2001; Lopez-Girona et al., Proc. Natl. Acad. Sci. U.S.A. 98:11289-94, 2001; Guo et al., Genes Dev. 14:2745-56, 2000; Gatei et al., J. Biol. Chem. 278:14806-11, 2003; Ng et al., J Biol. Chem. 279(10):8808-19, 2004; Wang et al., Natl Acad Sci USA. 100(26):15387-92, 2003; Stojic et al., Genes Dev. 18(11):1331-44, 2004. These serine sites are phosphorylated by upstream checkpoint kinases, Atm and Atr. Liu et al., Genes Dev. 14:1448-59, 2000; Zhao et al. Mol. Cell. Biol., 21:4129-39, 2001).
The phosphorylation of these sites in response to a candidate Chk1 activator can be monitored by Western blot or immunohistochemistry of tumor cells. […] HT29 cells are treated with 20 μM gemcitabine for two h. The gemcitabine is washed out of the cell growth media and cells are incubated for 22 additional h. Protein lysates are prepared and separated by an SDS-polyacrylamide gel electrophoresis. Proteins are transferred to PVDF membranes and probed with antisera (Cell Signalling) specific for either phosphorylated serine 317 or 345 (Cell Signalling).

Row | Structure (SMILES) | tumor growth [1] | phosphorylation of Chk1 serine 296 ([2]; HT29 cells, 20 μM for two h, then 22 h washout) | phosphorylation of Chk1 serines 317 and 345 [3] | inhibition of Chk1 serine 296 phosphorylation ([2]; gemcitabine-stimulated tumor cells)
1 | Nc1ccn([C@@H]2O[C@H](CO)[C@@H](O)C2(F)F)c(=O)n1 [gemcitabine, 2′,2′ difluoro-2′-deoxycytidine] | delay in tumor growth is observed | results in the phosphorylation of serine 296 | results in the phosphorylation of both serines 317 and 345 | –
2 | COC[C@H]1OC(=O)c2coc3c2[C@@]1(C)C1=C(C3=O)[C@@H]2CCC(=O)[C@@]2(C)C[C@H]1OC(C)=O [wortmannin] | – | – | – | not inhibited
